Test [1] has as its system wild type A bulge IRE RNA. Put plainly: Thermal melting experiment, wild type IRE.
Description: Thermal melting experiment. […] The RNA was heated to 65° C. and slowly cooled to room temperature. […] The absorbance of solution was monitored at 260 nm by a Beckman Coulter DU 800 Spectrophotometer. Background of buffer or buffer plus compound was subtracted from the signal. Resulted melting curves were fitted with MeltWin v3.5 to determine ΔG°, ΔH°, ΔS°, and Tm. The melting temperature was compared to the first derivative value from the raw data for similarity.
For test [2], the system named is α-synuclein pre-formed fibrils (PFFs) toxicity in SH-SY5Y cells. Put plainly: Cell death assay: cytoprotection against α-synuclein pre-formed fibrils (LDH). In kind it is cell-based, human. The conditions noted are these: 0.25-1 μM pretreatment 24 h, 50 μg/mL PFFs 48 h. The method, then:
Cell death assay. The cytoprotective effect of Synucleozid was tested against α-synuclein PFFs. Human α-synuclein was expressed^78 and fibrillization induced as previously described^79. SH-SY5Y cells were pretreated with Synucleozid (0.25 μM to 1 μM) for 24 h and challenged with 50 μg/mL of α-synuclein PFFs for an additional 48 h in the presence of Synucleozid. Cell death was measured using LDH (Lactate Dehydrogenase) Cytotoxicity Detection Kit (Takara) according to the manufacturer's instructions and plotted either as optical density value or as percentage changes in comparison to respective controls. Monomeric α-synuclein (50 μg/mL) challenge was used as negative control for PFF cytotoxicity. Additional details are provided in the Supporting Information.
Cell death assay. The cytoprotective effect of Synucleozid was tested against α-synuclein preformed fibrils. […] To induce fibrillization of monomertic α-synuclein, the solution was subjected to shaking at 1000 rpm at 37° C. for 7 days on a thermomixer C (Eppendorf), and formation of fibrillar α-synuclein was monitored and confirmed by thioflavin-T assay (8). […] Cell death was measured using LDH (Lactate Dehydrogenase) Cytotoxicity Detection Kit (Takara) according to the manufacturer's instructions and plotted either as optical density value or as percentage changes in comparison to respective controls. […]

In a further test the test system is SNCA mRNA. Put plainly: Polysome profiling. The conditions noted are these: 1 μM, 48 h. Type of test: cell-based, human. The protocol:
Polysome profiling. Polysome profiling studies were completed similarly to previously described methods (9, 10). SH-SY5Y cells were treated with DMSO vehicle or Synucleozid (1 μM) at 50% confluency. After 48 h, 100 μg/mL (final concentration) cycloheximide (CHX) was added to dishes, and cells were incubated at 37° C. for 10 min. After two times washing with ice-cold 1×DPBS supplemented with 100 μg/mL CHX, cells were scraped with ice-cold 300 μL 1×DPBS supplemented with 100 μg/mL CHX. Three 100 mm dishes of cells were prepared and combined as one profiling sample. After centrifugation, cell pellets were lysed with 250 μL of ice-cold polysome extraction buffer [10 mM NaCl, 10 mM MgCl2, 10 mM Tris, pH 7.5, 1% Triton X-100, 1% sodium deoxycholate, 1 mM DTT supplemented with […] and 0.2 U/μL RNasin (Promega)]. The lysate was transferred to an ice-cold Eppendorf tube, gently vortexed and centrifuged for 15 min at 13,200 rpm, 4° C. The supernatant was layered onto 10 mL linear 10-50% sucrose gradients containing 20 mM HEPES (pH 7.4), 5 mM MgCl2, 100 mM KCl, […], and 100 µg/mL CHX. The sucrose gradients were centrifuged at 40,000 rpm for 2 h at 4° C. then fractionated using a fraction collector (Brandel Inc.). The absorbance of cytosolic RNA was recorded at 254 nm by an inline UV monitor. A 400 μL aliquot from each fraction was collected. Then, RNA extraction, cDNA synthesis and RT-qPCR were performed as described above.

Test [3] concerns the target RNA-7 (A bulge mutated to U or G bulge). Briefly: Competitive binding assay (2-AP), RNA-7. The method, then:
(§1) EC50 was calculated from Eq. (1).

Test [4] concerns the target RNA-6 (A bulge mutated to U or G bulge). Put plainly: Competitive binding assay (2-AP), RNA-6. The method, then: as §1
Test [5] has as its system RNA-8 to 11 (mutated closing base pairs). Briefly: Competitive binding assay (2-AP), RNA-8 to 11. The method, then: as §1

For `N=C(N)c1ccc(Nc2ccc(-c3cc4ccc(C(=N)N)cc4[nH]3)cc2)cc1` [Synucleozid A], in test [1], the “increase of Tm of wild type IRE” value was determined as 3 °C. Further, the “Tm of wild type IRE in presence of Synucleozid” value in test [1] (from 51.4 without compound) turned out to be 54.8 °C. Further, the “ΔG37° of wild type IRE in presence of Synucleozid” value in test [1] (from −2.91 without compound) was -3.23 kcal/mol. Moreover, the entries for the “cytoprotection against toxicity of α-synuclein PFFs (LDH release)” value in test [2] and in test [2] (listed as Synucleozid) were “mitigated the toxicity induced by PFFs in a concentration dependent manner” and “abrogates cytotoxicity”, respectively. The “association of ribosomes with a control RNA” value in the test with SNCA mRNA is given as “does not affect”. The “decrease of SNCA mRNA associated with active polysomes” value in the test with SNCA mRNA (SH-SY5Y cells) is listed as ~20%. Also, in the test with SNCA mRNA (fractions 1-5), the “SNCA mRNA associated with incomplete ribosomes” value was “increase”. In addition, the Kd in test [3] and in test [4] was ~20 µM throughout. Moreover, the “reduction of avidity compared to the native IRE” value in test [3] and in test [4] was 10 fold each time. Also, the “effect of closing base pair mutation on binding affinity” value in test [5] is reported as “reduced binding affinity”.

The record behind these values is US20230054976A1, “METHODS FOR INHIBITION OF ALPHA-SYNUCLEIN mRNA USING SMALL MOLECULES” (The Scripps Research Institute, priority 2019, published 2023).
